Activity calls are given as the source filed them. The calls are words filed in the database; no cut-off is given here.
Legend:
Staphylococcus aureus [1] = test: Antibacterial activity against Staphylococcus aureus 29213 incubated for 12 to 18 hrs by microbroth dilution method; type: functional; settings: time 12-18 hrs
Staphylococcus aureus [2] = test: Antibacterial activity against methicillin-resistant Staphylococcus aureus 43300 incubated for 12 to 18 hrs by microbroth dilution method; type: functional; settings: time 12-18 hrs
Bacteria [3] = test: Antibacterial activity against bacterial cells at 1 to 128 uM in presence of CaCl; type: functional, organism-based; settings: dose 1-128 µM
[4] = system: Lactiplantibacillus plantarum; test: Antibacterial activity against Lactobacillus plantarum 8014 incubated for 12 to 18 hrs by microbroth dilution method; type: functional; settings: time 12-18 hrs
[5] = Effect on secondary structure of compound in PBS assessed as formation of alpha-helical conformation at 100 uM by CD analysis; type: physicochemical; settings: buffer
Pseudomonas aeruginosa [6] = test: Antibacterial activity against Pseudomonas aeruginosa PAO1 incubated for 12 to 18 hrs by microbroth dilution method; type: functional; settings: time 12-18 hrs
Escherichia coli [7] = test: Antibacterial activity against Escherichia coli K99 incubated for 12 to 18 hrs by microbroth dilution method; type: functional; settings: time 12-18 hrs
Escherichia coli [8] = test: Antibacterial activity against Escherichia coli 1515 incubated for 12 to 18 hrs by microbroth dilution method; type: functional; settings: time 12-18 hrs
Bacteria [9] = test: Antibacterial activity against bacterial cells at pH 12; type: functional
Escherichia coli [10] = test: Disruption of membrane integrity in Escherichia coli K88 at 2 uM by PI staining based flow cytometry (reference value: 0.1 %); type: functional
[11] = Cytotoxicity against mouse RAW264.7 cells assessed as cell viability at 128 uM incubated for 4 hrs by MTT assay relative to control; type: toxicity, cell-based; settings: read-out: Activity
Bacteria [12] = test: Antibacterial activity against bacterial cells at 1 to 128 uM in presence of NaCl; type: functional, organism-based; settings: dose 1-128 µM
[13] = Antibacterial activity against Salmonella choleraesuis 21493 incubated for 12 to 18 hrs by microbroth dilution method; type: functional, Salmonella enterica subsp. enterica serovar Choleraesuis; settings: Salmonella enterica, time 12-18 hrs
Salmonella typhimurium = test: Antibacterial activity against Salmonella typhimurium 7731 incubated for 12 to 18 hrs by microbroth dilution method; type: functional, Salmonella enterica subsp. enterica serovar Typhimurium; settings: Salmonella enterica, time 12-18 hrs
[14] = system: Lacticaseibacillus rhamnosus; test: Antibacterial activity against Lactobacillus rhamnosus 7469 incubated for 12 to 18 hrs by microbroth dilution method; type: functional; settings: time 12-18 hrs
[15] = Hydrophobicity of compound; type: physicochemical
Enterococcus faecalis = test: Antibacterial activity against Enterococcus faecalis 29212 incubated for 12 to 18 hrs by microbroth dilution method; type: functional; settings: time 12-18 hrs
Bacteria [16] = test: Antibacterial activity against bacterial cells at pH 2 to 12; type: functional
[17] = Relative hydrophobic moment of compound; type: physicochemical
Escherichia coli [18] = test: Induction of resistance development in Escherichia coli K88 at sub-MIC measured after 20 passages; type: functional, organism-based
Escherichia coli [19] = test: Induction of morphological changes in Escherichia coli K88 assessed as membrane permeability at edges at 2 uM incubated for 1 hr by TEM analysis; type: functional, organism-based
Escherichia coli [20] = test: Inhibition of DNA migration in Escherichia coli K88 at 64 uM incubated for 40 mins by agarose gel electrophoresis.; type: functional, organism-based
[21] = Binding affinity to 6xHis-tagged recombinant Escherichia coli TMK assessed as dissociation constant by BLI assay
Bacteria [22] = test: Antibacterial activity against bacterial cells at 1 to 64 uM incubated for 4 hrs in presence of 50 percent serum; type: functional, organism-based; settings: dose 1-64 µM
Escherichia coli [23] = test: Induction of ROS generation in Escherichia coli K88 assessed as increase in fluorescence intensity incubated for 1 hr by DCFH-DA dye based analysis; type: functional, organism-based
[24] = Cytotoxicity against porcine IPEC-J2 cells assessed as cell viability at 128 uM incubated for 4 hrs by MTT assay relative to control; type: toxicity, cell-based, Sus scrofa; settings: pig, read-out: Activity
Bacteria [25] = test: Antibacterial activity against bacterial cells at 100 degreeC at 1 to 64 uM incubated for 60 mins; type: functional, organism-based; settings: dose 1-64 µM
[26] = system: Staphylococcus epidermidis; test: Antibacterial activity against Staphylococcus epidermidis 12228 incubated for 12 to 18 hrs by microbroth dilution method; type: functional; settings: time 12-18 hrs
Escherichia coli [27] = test: Induction of morphological changes in Escherichia coli K88 assessed as cytoplasmic leakage at 2 uM incubated for 1 hr by TEM analysis; type: functional, organism-based
Escherichia coli [28] = test: Induction of morphological changes in Escherichia coli K88 assessed as membrane folding at 2 uM incubated for 1 hr by SEM analysis; type: functional, organism-based
Lactococcus lactis = test: Antibacterial activity against Lactococcus lactis NZ9000 incubated for 12 to 18 hrs by microbroth dilution method; type: functional; settings: time 12-18 hrs
Pseudomonas aeruginosa [29] = test: Antibacterial activity against Pseudomonas aeruginosa 27853 incubated for 12 to 18 hrs by microbroth dilution method; type: functional; settings: time 12-18 hrs
[30] = Hemolytic activity against human red blood cells at 2 to 128 uM relative to control; type: toxicity, cell-based, Erythrocyte; settings: dose 2-128 µM, read-out: Activity
Bacteria [31] = test: Antibacterial activity against bacterial cells at pH 2; type: functional
Bacteria [32] = test: Antibacterial activity against bacterial cells at pH 4 to 10; type: functional
Staphylococcus aureus [33] = test: Antibacterial activity against Staphylococcus aureus 25923 incubated for 12 to 18 hrs by microbroth dilution method; type: functional; settings: time 12-18 hrs
Escherichia coli [34] = test: Antibacterial activity against Escherichia coli 078 incubated for 12 to 18 hrs by microbroth dilution method; type: functional; settings: time 12-18 hrs
Escherichia coli [35] = test: Induction of morphological changes in Escherichia coli K88 assessed as membrane contraction at 2 uM incubated for 1 hr by SEM analysis; type: functional, organism-based
Escherichia coli [36] = test: Antibacterial activity against Escherichia coli K88 incubated for 12 to 18 hrs by microbroth dilution method; type: functional; settings: time 12-18 hrs

## H-WKKIWKPGIKKWIK-OH
Staphylococcus aureus [1]
  MIC: 128 µM
Staphylococcus aureus [2]
  MIC: 128 µM
Bacteria [3]
  Activity: inactive
[4]
  MIC: 128 µM
[5]
  Activity: Active
Pseudomonas aeruginosa [6]
  MIC: 16 µM
Escherichia coli [7]
  MIC: 16 µM
Escherichia coli [8]
  MIC: 32 µM
Bacteria [9]
  MIC: 32 µM
Escherichia coli [10]
  Activity: 16.3%
[11]
  viability at 4 h, 128 µM: > 80%
Bacteria [12]
  Activity: inactive
[13]
  MIC: 16 µM
Salmonella typhimurium
  MIC: 32 µM
[14]
  MIC: 128 µM
[15]
  Activity: 0.495
Enterococcus faecalis
  MIC: 128 µM
Bacteria [16]
  MIC: 16 µM
[17]
  Activity: 0.727
Escherichia coli [18]
  Activity: inactive
Escherichia coli [19]
  Activity: inactive
Escherichia coli [20]
  inhibition: Active
[21]
  Kd: < 1 pM
Bacteria [22]
  Activity: Active
Escherichia coli [23]
  Activity: Dose-dependent-effect
[24]
  viability at 4 h, 128 µM: > 80%
Bacteria [25]
  Activity: Active
[26]
  MIC: 128 µM
Escherichia coli [27]
  Activity: inactive
Escherichia coli [28]
  Activity: inactive
Lactococcus lactis
  MIC: 128 µM
Pseudomonas aeruginosa [29]
  MIC: 32 µM
[30]
  hemolysis at up to 128 µM: < 5%
Bacteria [31]
  MIC: 32 µM
Bacteria [32]
  MIC: 16 µM
Staphylococcus aureus [33]
  MIC: 128 µM
Escherichia coli [34]
  MIC: 32 µM
Escherichia coli [35]
  Activity: inactive
Escherichia coli [36]
  MIC: 16 µM

From ChEMBL document CHEMBL6103615, “Thymidylate Kinase-Targeted Antimicrobial Peptides via Phage Display: A Novel Strategy against Gram-Negative Bacteria” (J Med Chem, 2025)
